In article PMC3669292, “Neuroprotective Efficacy of a New Brain-Penetrating C-Abl Inhibitor in a Murine Parkinson’s Disease Model” (PLoS ONE, 2013):

How the values were obtained:
[1] = cited from earlier work
BBMEC monolayers = assay: Directional permeability of drug analogues across primary BBMEC monolayers (in vitro BBB model); format: in vitro ADME, bovine; settings: for Apparent Permeability Ratio A → B/B→ A: mean ± SD, n = 3
Method: (§1) The BBMEC were isolated by a modified method previously described. Briefly, the meninges were removed from the gray matter of fresh cow cerebral cortices and mechanically homogenized through a 100 μm mesh screen. Dispase II enzyme (5 mg/ml) reconstituted in MEM isolation media (MEM ([…]), HEPES (50 mM), polymyxin B (50 ug/ml), gentamicin (50 ug/ml) and amphotercin B (2.5 ug/ml) at pH 7.4) was added to the freshly homogenized cerebral cortical tissue (10 mg/g brain tissue) and MEM isolation media at […] was added (equal w/w of brain tissue). The mixture was placed in an incubated shaker for one hour (37°C, 150 rpm). Following this incubation, the supernatant was removed by centrifugation (10 min at 1570 rcf). […] The crude capillary pellet was collected and re-suspended in a collagenase/dispase (5 mg/ml) solution at a final concentration of 0.1% (v/w) and placed in an incubated shaker (37°C, 150 rpm) for one hour. […] The digested capillaries were centrifuged (10 min, 1700 rcf) to remove the enzymatic treatment and re-suspended in isolation media and pipetted into the percoll gradient tubes. The BBMEC cells were then separated by centrifugation (10 min at 1700 rcf). […] The BBMEC were plated (approximately 50,000 cells/cm^2 density) on collagen-coated, fibronectin-treated culture plates, and incubated in a humidified incubator (37°C with 5% (v/v) CO2). The cells were used after reaching confluence, typically 8-12 days. The concentrations of both drugs, Imatinib and INNO-406, were analyzed by a rapid HPLC separation and UV-VIS detection. […] The effluents were monitored at 223 nm and quantified using the area under the peak from standard solutions dissolved in assay II buffer (0.4 to 25 μg/ml). Assay II buffer consisted of sodium chloride (122 mM), potassium chloride (3 mM), calcium chloride (1.4 mM), magnesium sulfate (1.2 mM), sodium bicarbonate (25 mM), HEPES (10 mM), d-glucose (10 mM) and potassium phosphate (0.4 mM) at Ph of 7.4. The directional comparison of drug analogues transported in primary BBMEC monolayers was determined. These methods have been previously described, [21]. Briefly, the freshly isolated BBMEC were plated in triplicates (50,000 cells/cm^2 seeding density) on collagen-coated, fibronectin-treated polycarbonate membrane inserts, and cultured until confluence (12 mm; 0.4 μm pore size, Costar TranswellTM 12-well, Cambridge, MA). Complete culture media from confluent BBMEC monolayers was replaced 24-hours prior to the start of the experiment. The confluent monolayers were mounted in side-by-side diffusion chambers ([…]) either the apical or the basolateral sides were supplied with fresh assay II buffer with drug (donor chamber, 10 μM). Samples (100 μl) were removed from the […] compartment at various time points (0-90 min) and replaced with fresh buffer. The concentration of drug in the samples was determined spectrophotometrically by HPLC methodology reported above ([…]). The directional transport was expressed as the percent of the respective drug across the BBMEC monolayers over time (Mean ± SD, n = 3).

[2] = as above; format: in vitro ADME, bovine; settings: bovine, pH 7.4, donor 10 µM, 0–90 min, mean ± SD, n = 3; for Papp A→B at 10 µM: apical-to-basolateral, read-out: Apparent Permeability Coefficient A → B; for Papp B→A at 10 µM: basolateral-to-apical, read-out: Apparent Permeability Coefficient B → A
Method: as §1

Bcr-Abl = settings: preclinical studies; cited from earlier work
[3] = tested on: c-Abl activation, parkin tyrosine phosphorylation, AIMP2 accumulation; assay: Immunoprecipitation/immunoblot of striatal lysates of MPTP-treated mice; format: in vivo, C57BL/6 mice; settings: 10 mg/kg i.p. daily one week before and one week after MPTP; vs MPTP alone
[4] = Brain levels of INNO-406 in C57 mice after single i.p. injection; format: in vivo; settings: for Brain level of INNO-406: C57 mice
Method: For pharmacokinetic studies, INNO-406 was injected at 2.5 mg/kg/i.p. or 10 mg/kg/i.p. in C57 mice and brains were harvested 1 h, 4 h, and 24 h after a single injection. In another study, INNO-406 was injected at 2.5 mg/kg/i.p. or 10 mg/kg/i.p. in C57 mice in the presence or absence of MPTP (4×20 mg/kg/i.p. at 2 h interval) after last injection of MPTP and brains were harvested 1 h, 4 h, and 24 h after a single injection of INNO-406. Finally, brain levels of MPP+ in C57 mice were measured 1 h, 4 h, and 24 h after single injection of MPTP (60 mg/kg/i.p.) in the presence or absence of a single injection of INNO-406 (2.5 mg/kg/i.p. or 10 mg/kg/i.p.).
The concentrations of both drugs, Imatinib and INNO-406, were analyzed by a rapid HPLC separation and UV-VIS detection. Briefly, the isocratic HPLC analysis for both Imatinib and INNO-406 were achieved on a C18 Zorbax column (150×4.6 mm, 5 um) (Phenomenex, Torrance, CA) with a simple mobile phase consisting of methanol and deionized water (50∶50% v/v/) at a flow rate of 1.0 ml/min. The effluents were monitored at 223 nm and quantified using the area under the peak from standard solutions dissolved in assay II buffer (0.4 to 25 µg/ml). Assay II buffer consisted of sodium chloride (122 mM), potassium chloride (3 mM), calcium chloride (1.4 mM), magnesium sulfate (1.2 mM), sodium bicarbonate (25 mM), HEPES (10 mM), d-glucose (10 mM) and potassium phosphate (0.4 mM) at Ph of 7.4.

[5] = tested on: MPTP-induced dopaminergic damage in C57BL/6 mice; assay: MPTP mouse model of PD: TH+ neuron stereology, striatal TH optical density, striatal dopamine; format: in vivo
SH-SY5Y cells = assay: Lactate dehydrogenase cytotoxicity assay, MPP+-treated cells; format: cell-based; settings: 6 h pretreatment with 0.5 or 1.0 µM; MPP+ 500 µM; 24 h after exposure
Method: The release of lactate dehydrogenase for cytotoxicity was measured by LDH assay kit (Roche#11644793001). A 100 µL of the supernatant from treated cells was transferred to new 96-well plates. The plates were incubated for 30 min at room temperature on orbital shaker. A colorimetric absorbance was recorded at 490 nm with a reference wavelength of 650 nm using a micro plate reader for colorimetric detection (BioTek, USA). Each experiment was done in triplicate. Cytotoxicity is expressed in terms of percent relative to the basal lactate dehydrogenase release by untreated control cells where controls cells serve as 100 percent.
Figure 4 INNO-406 prevents dopaminergic depletion and c-Abl mediated parkin phosphorylation in mice striatum. (A) INNO-406 prevents MPTP-induced depletion of striatal dopamine and its metabolites DOPAC and HVA in adult male C57BL/J6 mice. Animals received INNO-406 (10 mg/kg, i.p.) as a single daily injection for 7 days before MPTP injection. […] The optical density quantification data as normalized amounts is presented. * Considered statistically significant from control (p<0.05). ** Considered statistically significant from MPTP (p<0.05). (C) Cytotoxicity plotted as a percentage of control as measured by LDH in SH-SY5Y cells treated with MPP^+ (500 µM). […] Differences among means were analyzed using one-way analysis of variance (ANOVA). […]

[6] = INNO-406 10 mg/kg i.p. without MPTP

Cc1ccc(NC(=O)c2ccc(CN3CCN(C)CC3)cc2)cc1Nc1nccc(-c2cccnc2)n1 [Imatinib]
Brain bioavailability [1]: limited brain bioavailability
Capacity to cross blood-brain barrier [1]: minimal capacity to cross blood-brain barrier
Apparent Permeability Ratio A → B/B→ A (BBMEC monolayers): 0.20±0.001
Papp A→B at 10 µM [2]: 12.96 ± 0.07 ×10⁻⁶ cm/s
Papp B→A at 10 µM [2]: 63.86 ± 0.23 ×10⁻⁶ cm/s

Cc1ccc(NC(=O)c2ccc(CN3CC[C@H](N(C)C)C3)c(C(F)(F)F)c2)cc1Nc1nccc(-c2cncnc2)n1 [INNO-406]
Potency relative to Imatinib in vivo (Bcr-Abl): ≥ 10 fold
Striatal level of AIMP2 [3]: significant decreases
Striatal level of phospho-c-Abl [3]: significant decreases
Striatal level of phospho-parkin [3]: significant decreases
Entry into brain [1]: significantly enter brain
Brain level of INNO-406 ([4]; 1 h after single injection of 10 mg/kg i.p.): 50 ng
Brain level of INNO-406 ([4]; 4 h after single injection of 10 mg/kg i.p.): 80 ng
Brain level of INNO-406 ([4]; 24 h after single injection of 10 mg/kg i.p.): 65 ng
Effect of multiple MPTP injections on brain levels of INNO-406 ([4]; MPTP 4×20 mg/kg i.p. at 2 h interval, INNO-406 2.5 or 10 mg/kg i.p., 1, 4, 24 h): not altered
Loss of TH staining intensity in striatum in MPTP mice that also received INNO-406 ([5]; 10 mg/kg i.p. daily one week before and after MPTP, relative to controls, MPTP alone 70% loss): 35%
Prevention (decrease) of loss of dopamine (and DOPAC, HVA) in the striatum ([5]; 10 mg/kg i.p. daily one week before and one week after MPTP 4×20 mg/kg i.p. every 2 h): 45%
MPTP-induced loss of TH+ neurons in the SNpc in mice also treated with INNO-406 ([5]; 10 mg/kg i.p. daily one week before and one week after MPTP 4×20 mg/kg, vs saline, MPTP alone 60–65% loss): 15–20%
Organization and intensity of TH-immunoreactive neurons in SNpc, INNO-406 alone vs saline [5, 6]: essentially similar
TH immunoreactivity within the striatum, INNO-406 alone vs control [5, 6]: similar
Enhancement of apical-to-basolateral transport across BBMEC monolayers compared to Imatinib (BBMEC monolayers; apical-to-basolateral, vs Imatinib): approximately 7.5 fold
Apparent Permeability Ratio A → B/B→ A (BBMEC monolayers): 1.00±0.119
Papp A→B at 10 µM [2]: 98 ± 6.74 ×10⁻⁶ cm/s
Papp B→A at 10 µM [2]: 94.5 ± 10.1 ×10⁻⁶ cm/s
MPP+-induced cytotoxicity (LDH release) (SH-SY5Y cells): prevented
